Results as given in patent US20190209506A1, “METHODS OF REDUCING OR PREVENTING OXIDATION OF LDL OR LIPID MEMBRANES IN A SUBJECT IN NEED THEREOF” (Amarin Pharmaceuticals Ireland Limited, priority 2018, published 2019).
Where “and” joins values, the source holds several entries; their conditions need not be identical. Equal values may be shown once.

Assays:
[1] = Membrane cholesterol domain structural integrity, x-ray diffraction (Example 9); conditions: C/P 1.5:1
Description: Multilamellar vesicles (MLVs) were prepared as binary mixtures that include palmitoyloleoylphosphatidylcholine (POPC) (1.0 mg total phospholipid per sample) and cholesterol at an elevated cholesterol-to-phospholipid (C/P) mole ratio of 1.5:1. […] Samples were shell-dried under nitrogen gas and placed under vacuum for 3 hours to remove residual solvent at room temperature. After desiccation, each sample was resuspended in saline buffer (0.5 mM HEPES, 154 mM NaCl, pH 7.3) to yield a final phospholipid concentration of 2.5 mg/mL. Lipid suspensions were then vortexed for 3 minutes at ambient temperature to form MLVs.
Briefly, a 100 μL aliquot of each MLV preparation (containing 250 μg MLV) was transferred to a Lucite® sedimentation cell fitted with an aluminum foil substrate designed to collect MLVs into a single membrane pellet upon centrifugation. Samples were then loaded into a Sorvall AH-629 swinging bucket rotor (DuPont Corp., Wilmington, Del.) and centrifuged at 35,000 g, 5° C., for 90 minutes.
After centrifugal orientation, sample supernatants were aspirated and aluminum foil substrates, each supporting a single membrane pellet, were removed from the sedimentation cells. Sample pellets were dried for 5-10 minutes at ambient conditions, mounted onto curved glass supports, and placed in hermetically-sealed, brass or glass containers (for immediate analysis or temporary storage, respectively). All x-ray diffraction experiments were conducted at 20° C., 74% relative humidity. The latter was established by exposing membrane samples to saturated solutions of […] (K2C4H4O6.½H2O) for at least 1 hour prior to experimental analysis.
Oriented membrane samples were aligned at grazing incidence with respect to a collimated, mono-chromatic CuKα x-ray beam (Kα1 and Kα2 unresolved; λ=1.54 Å) produced by a Rigaku Rotaflex RU-200, high-brilliance microfocus generator (Rigaku-MSC, The Woodlands, Tex.) as previously described (Mason et al., Biophys. J., vol. 55(4), pages 769-778 (1989)). The samples were initially subjected to x-ray diffraction analysis at least 12 hours after formation of the membrane pellets and retested for up to several days. Analytical x-rays were generated by electron bombardment of a rotating copper anode and are filtered through a thin nickel foil to provide monochromatic radiation (λ=1.54 Å). Collimation of the x-ray beam was achieved using a single Franks mirror. Diffraction data were collected on a one-dimensional, position-sensitive electron detector (Hecus X-ray Systems, Graz, Austria) at a sample-to-detector distance of 150 mm from the sample site.
The d-space for any given membrane multi bilayer is a measurement of the unit cell periodicity of the membrane lipid bilayer (e.g., the distance from the center of one lipid bilayer to the next including surface hydration), and is calculated from Bragg's Law, hλ=2d sin θ, where h is the diffraction order, λ is the wavelength of the x-ray radiation (1.54 Å), d is the membrane lipid bilayer unit cell periodicity, and θ is the Bragg angle equal to one-half the angle between the incident beam and scattered beam.
The presence of cholesterol domains in a given membrane sample results in the production of distinct Bragg (diffraction) peaks having singular periodicity values of 34 and 17 Å (typically referred to as first- and second-order cholesterol domain peaks). Under the specific temperature and relative humidity conditions established for these experiments, the second-order, 17 Å cholesterol domain peak was well-delineated from other, neighboring cholesterol and phospholipid diffraction peaks and was thus used to quantitate relative cholesterol domain peak intensity. Routines written in Origin 8.6 (OriginLab Corporation, Northampton, Mass.) were used to determine total peak area (associated with all diffraction peaks in a given pattern) against which the second-order cholesterol domain peak was normalized.

human LDL = experiment: Copper-induced LDL oxidation, dose and time dependence, MDA (Example 17); format: biochemical
Description: LDL was isolated from human plasma by isopycnic centrifugation, separated into test samples of 100 μg/mL, and incubated at 37° C. for 30 min in the absence (vehicle) or presence of EPA over a range of concentrations of 1 to 10 μM. The samples were subsequently subjected to copper-induced oxidation. Following the copper-induced oxidation, LDL oxidation was measured over the course of six hours. Tables 8 and 9 enumerate the changes in MDA concentration expressed as molar equivalents for each of the vehicle and EPA test samples as a function of time (i.e., at 0 hours, 1 hour, 2 hours, 2.5 hours, and 3 hours).

[2] = LOOH formation in membrane vesicles, fatty acid comparison (Example 16); format: biochemical; conditions: 5 μM
Description: Iodometric approaches were used to measure in vitro LOOH formation in membrane vesicles reconstituted as binary mixtures of cholesterol and dilinoleoyl phosphatidylcholine. Vesicles were prepared at a cholesterol-to-phospholipid mole ratio of 0.6:1 and subjected to autoxidation (e.g., lipid oxidation) at 37° C. Lipid oxidation was stimulated with 0.1 μM copper sulfate for 48 hours. All FAs were delivered at 5 and 10 μM.

IC50 (human LDL; at 6 hours, read-out: half-maximum concentration of inhibition of LDL oxidation): 5 µM
Compound: CC/C=C\C/C=C\C/C=C\C/C=C\C/C=C\CCCC(=O)O [EPA, cis-5,8,11,14,17-eicosapentaenoic acid]
% change Vs control (cholesterol domain peak intensity) ([1]; D/P mole ratio 1:30): −65.5 ± 17.1% | Relative Cholesterol Domain Peak Intensity ([1]; D/P mole ratio 1:30): 14.6±5 | reduction in cholesterol domain peaks compared to vehicle ([1]; D/P mole ratio 1:30): 65% | % change (vs. Control) ([1]; D/P mole ratio 1:60): −30.2 ± 27.9% | Relative Cholesterol Domain Peak Intensity ([1]; D/P mole ratio 1:60): 29.5 ± 10.9 | % change (vs. Control) ([1]; D/P mole ratio 1:90): −15.0 ± 12.6% | Relative Cholesterol Domain Peak Intensity ([1]; D/P mole ratio 1:90): 36.0 ± 3.1 | MDA Equivalent (human LDL; EPA 1.0 μM, 0 Hour): 0.24 µM and 0.26 µM | MDA Equivalent (human LDL; EPA 1.0 μM, 1 Hour): 3.85 µM and 3.14 µM and 2.87 µM | MDA Equivalent (human LDL; EPA 1.0 μM, 2 Hour): 10.33 µM and 10.92 µM and 10.63 µM | MDA Equivalent (human LDL; EPA 1.0 μM, 2.5 Hour): 10.60 µM and 10.92 µM and 10.65 µM | MDA Equivalent (human LDL; EPA 1.0 μM, 3 Hour): 9.44 µM and 9.95 µM and 9.93 µM | MDA Equivalent (human LDL; EPA 1.0 μM, 3.5 Hour): 10.13 µM and 10.87 µM | MDA Equivalent (human LDL; EPA 1.0 μM, 4 Hour): 8.93 µM and 9.39 µM | MDA Equivalent (human LDL; EPA 1.0 μM, 6 Hour): 9.79 µM and 10.10 µM | MDA Equivalent (human LDL; EPA 2.0 μM, 0 Hour): 0.25 µM and 0.26 µM and 0.19 µM | MDA Equivalent (human LDL; EPA 2.0 μM, 1 Hour): 1.15 µM and 1.04 µM | MDA Equivalent (human LDL; EPA 2.0 μM, 2 Hour): 7.34 µM and 7.35 µM and 7.67 µM | MDA Equivalent (human LDL; EPA 2.0 μM, 2.5 Hour): 9.45 µM and 9.62 µM and 9.60 µM | MDA Equivalent (human LDL; EPA 3.0 μM, 0 Hour): 0.21 µM and 0.22 µM | MDA Equivalent (human LDL; EPA 3.0 μM, 1 Hour): 0.56 µM and 0.57 µM and 0.53 µM | MDA Equivalent (human LDL; EPA 3.0 μM, 2 Hour): 1.72 µM and 1.78 µM and 1.74 µM | MDA Equivalent (human LDL; EPA 3.0 μM, 2.5 Hour): 3.09 µM and 3.01 µM and 2.91 µM | MDA Equivalent (human LDL; EPA 3.5 μM, 0 Hour): 0.17 µM and 0.26 µM and 0.29 µM | MDA Equivalent (human LDL; EPA 3.5 μM, 2 Hour): 1.04 µM and 1.05 µM and 0.90 µM | MDA Equivalent (human LDL; EPA 3.5 μM, 2.5 Hour): 1.16 µM and 1.43 µM and 0.95 µM | MDA Equivalent (human LDL; EPA 4.0 μM, 0 Hour): 0.19 µM and 0.21 µM and 0.22 µM | MDA Equivalent (human LDL; EPA 4.0 μM, 1 Hour): 0.37 µM and 0.41 µM and 0.40 µM | MDA Equivalent (human LDL; EPA 4.0 μM, 2 Hour): 1.00 µM and 0.78 µM and 0.71 µM | MDA Equivalent (human LDL; EPA 4.0 μM, 2.5 Hour): 1.26 µM and 0.94 µM and 0.80 µM | MDA Equivalent (human LDL; EPA 4.5 μM, 0 Hour): 0.28 µM and 0.17 µM and 0.18 µM | MDA Equivalent (human LDL; EPA 4.5 μM, 1 Hour): 0.28 µM and 0.30 µM and 0.21 µM | MDA Equivalent (human LDL; EPA 4.5 μM, 2 Hour): 0.38 µM and 0.50 µM and 0.44 µM | MDA Equivalent (human LDL; EPA 4.5 μM, 2.5 Hour): 0.36 µM and 0.19 µM and 0.31 µM | MDA Equivalent (human LDL; EPA 5.0 μM, 0 Hour): 0.19 µM and 0.26 µM and 0.27 µM | MDA Equivalent (human LDL; EPA 5.0 μM, 2 Hour): 0.35 µM and 0.33 µM and 0.30 µM | MDA Equivalent (human LDL; EPA 5.0 μM, 2.5 Hour): 0.22 µM and 0.24 µM and 0.21 µM | MDA Equivalent (human LDL; EPA 10.0 μM, 0 Hour): 0.21 µM and 0.24 µM and 0.29 µM | MDA Equivalent (human LDL; EPA 10.0 μM, 1 Hour): 0.12 µM and 0.06 µM | MDA Equivalent (human LDL; EPA 10.0 μM, 2 Hour): 0.27 µM and 0.29 µM and 0.23 µM | MDA Equivalent (human LDL; EPA 10.0 μM, 2.5 Hour): 0.01 µM and 0.02 µM | inhibition of LDL oxidation (human LDL; above 7.0 μM, through 6 hours): > 88% | time up to which oxidation was inhibited (human LDL; concentrations ≤3 μM): up to 4 hours | activity of EPA greater than ALA by [2]: 213% | activity of EPA greater than DHA by [2]: 279% | activity of EPA greater than DPA by [2]: 121% | activity of EPA greater than ETE by [2]: 174% | reduction of LOOH levels compared to the vehicle ([2]; 0.1 μM copper sulfate, 48 hours): 77%
